Experiments:
Type in all cases: cell-based
Details in all cases: hPBMC, compound 500 nM, 24 hours, Western blot
[1] = molecular target: GSPT1 (Homo sapiens (Human), UniProt P15170+Q96SW2); assay: Western blot, substrate protein expression in hPBMC: GSPT1
Experimental: (§1) The effect of the compounds of the present disclosure on the expression of target proteins in cells was detected using conventional Western blot analysis.
(§2) Human peripheral blood mononuclear cells (hPBMCs) at a density of 1×10^6 cells/mL were thawed according to the PBMC Recovery Protocol (Milecell Biotechnologies Inc, Shanghai). […] After 24 hours of compounds treatment, cells were harvested and lysed in RIPA protein lysate containing phosphatase inhibitors on ice for 30-60 min, followed by centrifugation. The supernatant was aspirated as the extracted total cell protein. The protein concentration of the supernatant was determined using the conventional BCA (Bicinchoninic Acid) assay. The supernatant was then mixed with 4× SDS sample loading buffer, denatured at 95° C. for 5 minutes, and then subjected to SDS-PAGE electrophoresis on a polyacrylamide gel. Proteins were then transferred to a nitrocellulose (NC) membrane, blocked at room temperature for 1-2 h, and processed for antibody incubation and detection according to the manufacturer's instructions (Cell Signaling Technology).
(§3) Half-Maximal Degradation Concentration value (the drug concentration required for degrading proteins by 50%, abbreviated as DC50) reads method: comparing the grayscale values of Western blot bands from drug-treated samples (protein degrader compounds) with those from blank (DMSO-treated) controls, and identifying the drug concentration range at which the grayscale value is half that of the DMSO-treated control bands.
(§4) DC50 values can be calculated using ImageJ software to measure grayscale values of Western blot bands from drug-treated samples. The relationship curve between drug concentration and grayscale values is fitted to estimate the drug concentration corresponding to half the grayscale value.
(§5) Target protein remaining (%) refers to the percentage of target protein remaining in hPBMC cells after treatment with protein degrader compounds.
(§6) Calculation method for protein remaining (%): Use ImageJ software to measure grayscale values of Western blot bands from drug (protein degrader)-treated samples. The grayscale value of drug-treated bands is divided by that of internal control protein bands, and the resulting quotient is normalized to obtain the relative percentage of remaining target protein after protein degrader treatment.
(§7) Target protein degradation rate (%)=100%-target protein remaining (%).

[2] = molecular target: IKZF1 (Homo sapiens (Human), UniProt Q13422+Q96SW2); assay: Western blot, substrate protein expression in hPBMC: IKZF1
IKZF1, sequence (Q13422 whole entry): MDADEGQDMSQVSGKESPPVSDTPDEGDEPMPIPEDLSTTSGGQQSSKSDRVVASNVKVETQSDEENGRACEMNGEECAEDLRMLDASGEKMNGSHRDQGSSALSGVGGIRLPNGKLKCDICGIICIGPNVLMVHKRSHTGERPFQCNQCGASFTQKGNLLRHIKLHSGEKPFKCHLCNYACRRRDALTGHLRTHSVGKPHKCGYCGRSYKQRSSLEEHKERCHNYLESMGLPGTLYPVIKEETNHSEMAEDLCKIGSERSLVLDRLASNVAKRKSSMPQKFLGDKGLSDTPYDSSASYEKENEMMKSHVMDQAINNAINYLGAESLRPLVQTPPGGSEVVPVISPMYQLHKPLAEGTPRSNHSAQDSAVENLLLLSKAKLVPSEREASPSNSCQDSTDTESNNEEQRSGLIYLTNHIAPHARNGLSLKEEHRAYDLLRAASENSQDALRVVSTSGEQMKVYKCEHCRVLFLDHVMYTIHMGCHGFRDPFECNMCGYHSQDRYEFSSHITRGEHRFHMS
IKZF1, sequence (Q96SW2 whole entry): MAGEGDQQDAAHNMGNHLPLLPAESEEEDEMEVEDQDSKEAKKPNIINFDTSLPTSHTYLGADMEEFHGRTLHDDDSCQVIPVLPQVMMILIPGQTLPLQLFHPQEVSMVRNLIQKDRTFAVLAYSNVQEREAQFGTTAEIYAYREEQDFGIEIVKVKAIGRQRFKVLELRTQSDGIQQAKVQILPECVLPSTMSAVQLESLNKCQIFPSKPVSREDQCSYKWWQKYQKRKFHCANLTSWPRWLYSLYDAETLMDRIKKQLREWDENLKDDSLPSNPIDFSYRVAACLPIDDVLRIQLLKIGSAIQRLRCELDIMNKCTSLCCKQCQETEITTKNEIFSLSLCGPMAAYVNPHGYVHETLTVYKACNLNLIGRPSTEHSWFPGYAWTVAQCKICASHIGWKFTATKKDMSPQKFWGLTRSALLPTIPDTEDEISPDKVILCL
IKZF1, sequence (Q16531 whole entry partner): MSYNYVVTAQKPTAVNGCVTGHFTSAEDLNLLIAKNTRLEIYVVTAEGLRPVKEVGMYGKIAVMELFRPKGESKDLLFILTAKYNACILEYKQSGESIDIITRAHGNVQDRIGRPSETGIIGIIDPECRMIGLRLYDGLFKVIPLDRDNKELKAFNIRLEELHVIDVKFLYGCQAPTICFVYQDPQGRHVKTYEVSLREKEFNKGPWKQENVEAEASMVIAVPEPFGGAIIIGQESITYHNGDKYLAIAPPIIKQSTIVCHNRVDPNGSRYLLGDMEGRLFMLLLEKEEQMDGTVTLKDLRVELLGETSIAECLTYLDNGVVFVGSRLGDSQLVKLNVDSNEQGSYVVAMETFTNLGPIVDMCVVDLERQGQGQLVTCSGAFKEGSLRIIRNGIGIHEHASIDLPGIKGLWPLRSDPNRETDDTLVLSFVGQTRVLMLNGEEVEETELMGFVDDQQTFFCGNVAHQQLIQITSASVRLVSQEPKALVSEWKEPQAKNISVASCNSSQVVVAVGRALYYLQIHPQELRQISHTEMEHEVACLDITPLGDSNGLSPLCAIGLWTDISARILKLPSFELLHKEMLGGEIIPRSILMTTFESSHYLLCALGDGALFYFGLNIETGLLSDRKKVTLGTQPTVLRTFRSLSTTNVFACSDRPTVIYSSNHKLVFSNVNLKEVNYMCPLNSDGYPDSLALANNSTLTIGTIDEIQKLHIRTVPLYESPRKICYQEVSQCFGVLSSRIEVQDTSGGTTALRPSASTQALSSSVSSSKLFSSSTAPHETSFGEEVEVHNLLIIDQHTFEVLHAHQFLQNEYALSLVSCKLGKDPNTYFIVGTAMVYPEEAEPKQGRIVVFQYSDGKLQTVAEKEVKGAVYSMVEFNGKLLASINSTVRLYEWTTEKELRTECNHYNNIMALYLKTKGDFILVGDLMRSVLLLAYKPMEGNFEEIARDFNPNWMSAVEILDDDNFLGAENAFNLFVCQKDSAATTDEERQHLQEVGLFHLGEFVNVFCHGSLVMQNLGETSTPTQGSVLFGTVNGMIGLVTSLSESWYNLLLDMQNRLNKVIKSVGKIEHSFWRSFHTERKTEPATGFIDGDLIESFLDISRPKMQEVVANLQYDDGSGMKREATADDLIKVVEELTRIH
Experimental: as §1, §2, §3, §4, §5, §6, §7

[3] = molecular target: IKZF3 (Homo sapiens (Human), UniProt Q96SW2+Q9UKT9); assay: Western blot, substrate protein expression in hPBMC: IKZF3
IKZF3, sequence (Q9UKT9 whole entry): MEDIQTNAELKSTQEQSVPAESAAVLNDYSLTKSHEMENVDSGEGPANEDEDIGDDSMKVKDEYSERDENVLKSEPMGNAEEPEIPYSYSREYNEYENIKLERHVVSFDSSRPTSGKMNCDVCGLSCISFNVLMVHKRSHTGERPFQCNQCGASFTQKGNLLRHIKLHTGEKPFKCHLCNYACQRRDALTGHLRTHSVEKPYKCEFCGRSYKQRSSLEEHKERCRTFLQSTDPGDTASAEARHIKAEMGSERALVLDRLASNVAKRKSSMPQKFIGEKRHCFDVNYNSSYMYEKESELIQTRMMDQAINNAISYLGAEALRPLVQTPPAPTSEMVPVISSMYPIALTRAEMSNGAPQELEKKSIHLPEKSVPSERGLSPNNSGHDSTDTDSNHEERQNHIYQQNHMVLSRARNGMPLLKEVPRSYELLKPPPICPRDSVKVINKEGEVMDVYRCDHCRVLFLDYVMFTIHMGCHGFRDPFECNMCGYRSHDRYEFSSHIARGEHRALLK
IKZF3, sequence (Q96SW2 whole entry): as the sequence (Q96SW2 whole entry) above
IKZF3, sequence (Q16531 whole entry partner): as the sequence (Q16531 whole entry partner) above
Experimental: as §1, §2, §3, §4, §5, §6, §7

GSPT1, sequence (P15170 whole entry): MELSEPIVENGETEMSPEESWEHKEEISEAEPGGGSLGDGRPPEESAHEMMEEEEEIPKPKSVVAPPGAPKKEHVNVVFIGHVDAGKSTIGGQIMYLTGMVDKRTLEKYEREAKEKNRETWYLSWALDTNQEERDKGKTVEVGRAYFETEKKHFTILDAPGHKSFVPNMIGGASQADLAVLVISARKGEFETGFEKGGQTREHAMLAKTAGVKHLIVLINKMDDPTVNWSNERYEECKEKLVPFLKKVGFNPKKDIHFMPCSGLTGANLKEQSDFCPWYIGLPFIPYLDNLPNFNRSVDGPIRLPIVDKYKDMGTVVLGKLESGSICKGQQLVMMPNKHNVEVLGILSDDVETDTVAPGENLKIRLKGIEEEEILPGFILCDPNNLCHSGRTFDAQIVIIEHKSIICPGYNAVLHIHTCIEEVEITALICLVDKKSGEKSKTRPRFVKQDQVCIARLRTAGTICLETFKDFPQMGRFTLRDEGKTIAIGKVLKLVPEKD
GSPT1, sequence (Q96SW2 whole entry): as the sequence (Q96SW2 whole entry) above
GSPT1, sequence (Q16531 whole entry partner): as the sequence (Q16531 whole entry partner) above

Compound	substrate protein remaining % GSPT1 [1]	substrate protein remaining % IKZF1 [2]	substrate protein remaining % IKZF3 [3]
CC1CN(Cc2ccc3c(c2)C(=O)N(C2CCC(=O)NC2=O)C3=O)CC(C)N1C(c1ccccc1)c1ccccc1 (stereo not drawn) [GT-05968, 5-((4-benzhydryl-3,5-dimethylpiperazin-1-yl)methyl)-2-(2,6-dioxopiperidin-3-yl) isoindoline-1,3-dione]	A (A represents 0% ≤ substrate protein remaining % ≤ 50%)	B (B represents substrate protein remaining % > 50%)	B (B represents substrate protein remaining % > 50%)
O=C1CCC(N2C(=O)c3ccc(C(=O)N4CC5CCC(C4)N5C(c4ccccc4)c4ccccc4)cc3C2=O)C(=O)N1 (stereo not drawn) [GT-05982, 5-(8-benzhydryl-3,8-diazabicyclo[3.2.1]octane-3-carbonyl)-2-(2,6-dioxopiperidin-3-yl) isoindoline-1,3-dione]	A (A represents 0% ≤ substrate protein remaining % ≤ 50%)	B (B represents substrate protein remaining % > 50%)	B (B represents substrate protein remaining % > 50%)
C[C@@H]1CN(C(c2ccccc2)c2ccccc2)CCN1Cc1ccc2c(c1)C(=O)N(C1CCC(=O)NC1=O)C2=O (stereo partly drawn) [GT-06047, 5-(((R)-4-benzhydryl-2-methylpiperazin-1-yl)methyl)-2-(2,6-dioxopiperidin-3-yl) isoindoline-1,3-dione]	A (A represents 0% ≤ substrate protein remaining % ≤ 50%)	B (B represents substrate protein remaining % > 50%)	B (B represents substrate protein remaining % > 50%)
O=C1CCC(N2C(=O)c3ccc(CN4CCN(C5c6cc(Cl)ccc6-c6ccc(Cl)cc65)CC4)cc3C2=O)C(=O)N1 (stereo not drawn) [GT-06049, 5-((4-(2,7-dichloro-9H-fluoren-9-yl)piperazin-1-yl)methyl)-2-(2,6-dioxopiperidin-3-yl) isoindoline-1,3-dione]	A (A represents 0% ≤ substrate protein remaining % ≤ 50%)	B (B represents substrate protein remaining % > 50%)	A (A represents 0% ≤ substrate protein remaining % ≤ 50%)
O=C1CCC(N2C(=O)c3ccc(CN4CC5CN(C(c6ccccc6)c6ccccc6)CC5C4)cc3C2=O)C(=O)N1 (stereo not drawn) [GT-06053, 5-((5-benzhydrylhexahydropyrrolo[3,4-c]pyrrol-2 (1H)-yl)methyl)-2-(2,6-dioxopiperidin-3-yl) isoindoline-1,3-dione]	A (A represents 0% ≤ substrate protein remaining % ≤ 50%)	B (B represents substrate protein remaining % > 50%)	B (B represents substrate protein remaining % > 50%)
O=C1CCC(N2C(=O)c3ccc(C(=O)N4CC5CN(C(c6ccccc6)c6ccccc6)CC5C4)cc3C2=O)C(=O)N1 (stereo not drawn) [GT-06068, 5-(5-benzhydryloctahydropyrrolo[3,4-c]pyrrole-2-carbonyl)-2-(2,6-dioxopiperidin-3-yl) isoindoline-1,3-dione]	A (A represents 0% ≤ substrate protein remaining % ≤ 50%)	B (B represents substrate protein remaining % > 50%)	B (B represents substrate protein remaining % > 50%)
O=C1CCC(N2C(=O)c3ccc(CN4CCN(C(c5ccccc5F)c5ccccc5F)CC4)cc3C2=O)C(=O)N1 (stereo not drawn) [GT-06088, 5-((4-(bis(2-fluorophenyl)methyl)piperazin-1-yl)methyl)-2-(2,6-dioxopiperidin-3-yl) isoindoline-1,3-dione]	A (A represents 0% ≤ substrate protein remaining % ≤ 50%)	B (B represents substrate protein remaining % > 50%)	B (B represents substrate protein remaining % > 50%)
C[C@@H]1CN(C(c2ccccc2)c2ccccc2)CCN1C(=O)c1ccc2c(c1)C(=O)N(C1CCC(=O)NC1=O)C2=O (stereo partly drawn) [GT-06094, 5-((R)-4-benzhydryl-2-methylpiperazine-1-carbonyl)-2-(2,6-dioxopiperidin-3-yl) isoindoline-1,3-dione]	A (A represents 0% ≤ substrate protein remaining % ≤ 50%)	B (B represents substrate protein remaining % > 50%)	B (B represents substrate protein remaining % > 50%)
O=C1CCC(N2C(=O)c3ccc(CN4CCN(C(c5ccccc5)c5ccccc5)CC4C(F)(F)F)cc3C2=O)C(=O)N1 (stereo not drawn) [GT-06099, 5-((4-benzhydryl-2-(trifluoromethyl)piperazin-1-yl)methyl)-2-(2,6-dioxopiperidin-3-yl) isoindoline-1,3-dione]	A (A represents 0% ≤ substrate protein remaining % ≤ 50%)	B (B represents substrate protein remaining % > 50%)	B (B represents substrate protein remaining % > 50%)
O=C1CCC(N2C(=O)c3ccc(CN4CCN(C(c5ccccc5)c5ccncc5)CC4)cc3C2=O)C(=O)N1 (stereo not drawn) [GT-06115, 2-(2,6-dioxopiperidin-3-yl)-5-((4-(phenyl(pyridin-4-yl)methyl)piperazin-1-yl)methyl) isoindoline-1,3-dione]	A (A represents 0% ≤ substrate protein remaining % ≤ 50%)	B (B represents substrate protein remaining % > 50%)	B (B represents substrate protein remaining % > 50%)
O=C1CCC(N2Cc3c(ccc(CN4CCN(C(c5ccc(C(F)(F)F)cc5)c5ccc(C(F)(F)F)cc5)CC4)c3F)C2=O)C(=O)N1 (stereo not drawn) [GT-06200, 3-(5-((4-(bis(4-(trifluoromethyl)phenyl)methyl)piperazin-1-yl)methyl)-4-fluoro-1-oxoisoindolin-2-yl)piperidine-2,6-dione]	A (A represents 0% ≤ substrate protein remaining % ≤ 50%)	B (B represents substrate protein remaining % > 50%)	A (A represents 0% ≤ substrate protein remaining % ≤ 50%)
O=C1CCC(N2Cc3cc(CN4CCN(C(c5ccc(C(F)(F)F)cc5)c5ccc(C(F)(F)F)cc5)CC4)c(F)cc3C2=O)C(=O)N1 (stereo not drawn) [GT-06201, 3-(5-((4-(bis(4-(trifluoromethyl)phenyl)methyl)piperazin-1-yl)methyl)-6-fluoro-1-oxoisoindolin-2-yl)piperidine-2,6-dione]	A (A represents 0% ≤ substrate protein remaining % ≤ 50%)	B (B represents substrate protein remaining % > 50%)	A (A represents 0% ≤ substrate protein remaining % ≤ 50%)
O=C1CCC(N2C(=O)c3ccc(CN4CCN(C(c5ccc(C(F)(F)F)cc5)c5ccc(C(F)(F)F)cc5)CC4)cc3C2=O)C(=O)N1 (stereo not drawn) [GT-06203, 5-((4-(bis(4-(trifluoromethyl)phenyl)methyl)piperazin-1-yl)methyl)-2-(2,6-dioxopiperidin-3-yl) isoindoline-1,3-dione]	A (A represents 0% ≤ substrate protein remaining % ≤ 50%)	B (B represents substrate protein remaining % > 50%)	A (A represents 0% ≤ substrate protein remaining % ≤ 50%)
